Patent EP1222183B1, “BENZOPYRAN DERIVATIVES” (priority 1999, dated 2001)

Columns and labels:
[1] = test system: prostatic urethral pressure; assay: Inhibition of urethral contractions induced by noradrenaline injection in anaesthetised dogs after i.v. administration; assay type: in vivo; conditions: dog; for ED50: Canis lupus familiaris, iv, dose inhibiting by 50% the urethral contractions induced by noradrenaline, read-out: UC ID50; for DBP/UC: ratio between the active doses (DBP ED25 / UC ID50)
Experimental: The experiments were performed according to the method of Imagawa J. et al., J. Pharmacol. Methods 22, 103-111, 1989, with substantial modifications, as follows: adult male beagle dogs, weighing 8-10 kg, were anaesthetised with pentobarbital sodium (30 mg/kg i.v. and 2 mg/kg/h i.v.), intubated and spontaneously ventilated with room air. In order to monitor systemic blood pressure (BP), a polyethylene (PE) catheter was introduced into the aortic arch through the left femoral artery. A collateral of the left femoral vein was cannulated for infusion of anaesthetic, and the right femoral vein was cannulated for administration of compounds. For intra-arterial (i.a.) injection of noradrenaline (NA), a PE catheter was introduced into the lower portion of the abdominal aorta via the right external iliac artery. Through such procedure, NA was selectively distributed to the lower urinary tract. A paramedian vertical suprapubic incision extending from the base of the pelvis to the mid-abdominal region was made and the bladder and prostate were exposed. The bladder was manually emptied with a syringe. Prostatic urethral pressure was monitored with a Mikro-tip cathe[…]) introduced into the bladder via the external urethral meatus, and withdrawn until the pressure transducer was positioned in the prostatic region of the urethra. A ligature was secured between the neck of the bladder and urethra to isolate the response of the latter and to avoid any interaction with the bladder. Another ligature was put around the Mikro-tip catheter at the external meatus, to secure the catheter itself. […] In order to compare the effects of the administered compound, dose/response curves (log dose transformation) were constructed by computing, at the peak effect, the percent decrease in diastolic blood pressure and the percent inhibition of the increase in urethral pressure induced by NA.

diastolic blood pressure = assay: Effect on diastolic blood pressure in anaesthetised dogs after i.v. administration; assay type: in vivo; conditions: dog, dose lowering diastolic blood pressure by 25%
Experimental: The experiments were performed according to the method of Imagawa J. et al., J. Pharmacol. Methods 22, 103-111, 1989, with substantial modifications, as follows: adult male beagle dogs, weighing 8-10 kg, were anaesthetised with pentobarbital sodium (30 mg/kg i.v. and 2 mg/kg/h i.v.), intubated and spontaneously ventilated with room air. In order to monitor systemic blood pressure (BP), a polyethylene (PE) catheter was introduced into the aortic arch through the left femoral artery. A collateral of the left femoral vein was cannulated for infusion of anaesthetic, and the right femoral vein was cannulated for administration of compounds. For intra-arterial (i.a.) injection of noradrenaline (NA), a PE catheter was introduced into the lower portion of the abdominal aorta via the right external iliac artery. Through such procedure, NA was selectively distributed to the lower urinary tract. A paramedian vertical suprapubic incision extending from the base of the pelvis to the mid-abdominal region was made and the bladder and prostate were exposed. The bladder was manually emptied with a syringe. Prostatic urethral pressure was monitored with a Mikro-tip catheter (5F) introduced into the bladder via the external urethral meatus, and withdrawn until the pressure transducer was positioned in the prostatic region of the urethra. A ligature was secured between the neck of the bladder and urethra to isolate the response of the latter and to avoid any interaction with the bladder. Another ligature was put around the Mikro-tip catheter at the external meatus, to secure the catheter itself. After a stabilising period following the surgical procedure (30 minutes), in which arterial and prostatic urethral pressure were continuously monitored as basal values, i.a. administration of NA was made at intervals of 20 minutes. The doses of NA chosen were such to produce an increase of at least 100% in urethral pressure. The test compounds were administered i.v. in a cumulative manner with intervals of 15-20 minutes between administrations. I.a. injections of NA were repeated 5 minutes after every dosing of test compound with intervals of about 10 minutes between stimulations. In order to compare the effects of the administered compound, dose/response curves (log dose transformation) were constructed by computing, at the peak effect, the percent decrease in diastolic blood pressure and the percent inhibition of the increase in urethral pressure induced by NA.

[2] = molecular target: T1, human 5-HT1A-serotoninergic receptor (Homo sapiens, UniProt P08908); assay: Radioligand binding ([3H]8-OH-DPAT) to cloned 5-HT1A receptor in HeLa cell membranes; conditions: cloned human receptor in HeLa cells, 1.2 nM [3H]8-OH-DPAT, 30 minutes at 30°C; read-out: Affinity (Ki) 5-HT1A
T1 construct: expressed in transfected cells; host or cells: HeLa (human), stably transfected
T1 sequence (P08908 1-422): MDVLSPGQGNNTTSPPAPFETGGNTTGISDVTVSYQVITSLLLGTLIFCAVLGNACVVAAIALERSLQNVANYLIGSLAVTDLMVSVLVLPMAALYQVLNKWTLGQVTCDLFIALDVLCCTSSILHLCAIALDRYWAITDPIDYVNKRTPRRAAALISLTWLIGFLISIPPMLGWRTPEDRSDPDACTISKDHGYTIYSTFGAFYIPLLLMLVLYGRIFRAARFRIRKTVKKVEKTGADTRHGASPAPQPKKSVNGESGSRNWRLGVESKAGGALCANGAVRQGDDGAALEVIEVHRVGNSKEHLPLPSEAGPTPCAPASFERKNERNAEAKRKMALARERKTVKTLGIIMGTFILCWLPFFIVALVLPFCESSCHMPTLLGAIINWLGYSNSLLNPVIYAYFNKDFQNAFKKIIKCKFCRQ

[3] = test system: prostatic urethral pressure; conditions: dog, i.v., dose inhibiting by 50% the urethral contractions induced by noradrenaline; data from Leonardi A. et al. 1997; cited from earlier work

| Structure (SMILES) | ED50 [1] | DBP/UC [1] | DBP ED25 (diastolic blood pressure) | Ki [2] | UC ID50 [3] |
| --- | --- | --- | --- | --- | --- |
| Cc1c(-c2ccccc2)oc2c(C(=O)NCCCN3CCN(c4ccccc4OCC(F)(F)F)CC3)cccc2c1=O [Example 15, 8-<3-{4-[2-(2,2,2-Trifluoroethoxy)-phenyl]-1-piperazinyl}propylcarbamoyl>-3-methyl-4-oxo-2-phenyl-4H-1-benzopyran] | 0.0049 mg/kg | 612 | 3.001 mg/kg |  |  |
| COc1ccc(OCC(F)(F)F)cc1N1CCN(CCCNC(=O)c2cccc3c(=O)c(C)c(C(N)=O)oc23)CC1 [Example 9, 2-Carbamoyl-8-<3-{4-[2-methoxy-5-(2,2,2-trifluoroethoxy)-phenyl]-1-piperazinyl}-propylcarbamoyl>-3-methyl-4-oxo-4H-1-benzopyran] |  |  |  | > 1000 nM |  |
| CCOC(=O)c1oc2c(C(=O)NCCCN3CCN(c4cc(Cl)ccc4OC)CC3)cccc2c(=O)c1C [Example 4, 2-Ethoxycarbonyl-8-{3-[4-(5-chloro-2-methoxyphenyl)-1-piperazinyl]-propylcarbamoyl}-3-methyl-4-oxo-4H-1-benzopyran] | 0.0023 mg/kg | 71.0 | 0.1633 mg/kg |  |  |
| COc1ccc(Cl)cc1N1CCN(CCCNC(=O)c2cccc3c(=O)c(C)c(C(N)=O)oc23)CC1 [Example 1, 2-Carbamoyl-8-{3-[4-(5-chloro-2-methoxyphenyl)-1-piperazinyl]-propylcarbamoyl}-3-methyl-4-oxo-4H-1-benzopyran] | 0.0118 mg/kg | 234.7 | 2.769 mg/kg |  |  |
| Cc1c(-c2ccccc2)oc2c(C(=O)NCCCN3CCN(c4cc(Cl)ccc4OCC(F)(F)F)CC3)cccc2c1=O [Example 22, 8-<3-{4-[5-Chloro-2-(2,2,2-trifluoroethoxy)-phenyl]-1-piperazinyl}-propylcarbamoyl>-3-methyl-4-oxo-2-phenyl-4H-1-benzopyran] | 0.0195 mg/kg | 64.92 | 1.266 mg/kg |  |  |
| COc1ccc(C#N)cc1N1CCN(CCCNC(=O)c2cccc3c(=O)c(C)c(-c4ccccc4)oc23)CC1 [Example 18, 8-{3-[4-(5-Cyano-2-methoxyphenyl)-1-piperazinyl]-propylcarbamoyl}-3-methyl-4-oxo-2-phenyl-4H-1-benzopyran] | 0.0341 mg/kg | 38.05 | 1.2976 mg/kg |  |  |
| COc1cc2nc(N3CCN(C(=O)C4CCCO4)CC3)nc(N)c2cc1OC (centres unmarked) [Terazosin, terazosin] |  |  |  |  | 0.0206 mg/kg |
